Data on 1 substance can be found in US12151018B2 (priority 2019, dated 2024).

The subject of the assay is Caenorhabditis elegans. The note with it: in vivo.

For argireline, the “amount needed alone for the same level of effect as argireline 100 ppm plus Z. piperitum extract 500 ppm” value is listed as 100,000 ppm.
